The source of these data is patent US20160176867A1, “MODIFIED BET-PROTEIN-INHIBITING DIHYDROQUINOXALINONES AND DIHYDROPYRIDOPYRAZINONES” (BAYER PHARMA AKTIENGESELLSCHAFT, priority 2013, published 2016).

Assay [1] deals with T1, BRD4 bromo domain 2 [BRD4(2)] (Homo sapiens, UniProt O60885).
T1 construct: N-terminally His6-tagged BRD4(2) (amino acids 357-445); made in house; host or cells: E. coli
The experiment in a line: BRD4/acetylated peptide H4 binding assay (TR-FRET), BRD4 bromo domain 2. The settings on record: inhibition of BRD4(2)/Ac-H4 peptide interaction. The text has this: (§1) Protein-Protein Interaction Assay: BRD4/Acetylated Peptide H4 Binding Assay
To assess the BRD4(2) binding strength of the substances described in this application, the ability thereof to inhibit the interaction between BRD4(2) and acetylated histone H4 in a dose-dependent manner was quantified.
(§2) For this purpose, a time-resolved fluorescence resonance energy transfer (TR-FRET) assay was used, which measures the binding between N-terminally His6-tagged BRD4(2) (amino acids 357-445) and a synthetic acetylated histone H4 (Ac-H4) peptide with sequence SGRGK(Ac)GGK(Ac)GLGK(Ac)GGAK(Ac)RHRKVLRDNGSGSK-biotin. The recombinant BRD4(2) protein produced in-house according to Filippakopoulos et al., Nature, 2010, 468:1119-1123 and Cell, 2012, 149:214-231, was expressed in E. coli and purified by means of (Ni-NTA) affinity and (Sephadex G-75) size exclusion chromatography. The Ac-H4 peptide can be purchased, for example, from Biosyntan (Berlin, Germany).
(§3) In the assay, typically 11 different concentrations of each substance (0.1 nM, 0.33 nM, 1.1 nM, 3.8 nM, 13 nM, 44 nM, 0.15 μM, 0.51 μM, 1.7 μM, 5.9 μM and 20 μM) were analysed as duplicates on the same microtitre plate. For this purpose, 100-fold concentrated solutions in DMSO were prepared by serial dilutions (1:3.4) of a 2 mM stock solution into a clear, 384-well microtitre plate (Greiner Bio-One, Frickenhausen, Germany). From this, 50 nl were transferred into a black test plate (Greiner Bio-One, Frickenhausen, Germany). The test was started by the addition of 2 μl of a 2.5-fold concentrated BRD4(2) solution (final concentration typically 100 nM in the 5 μl of reaction volume) in aqueous assay buffer [50 mM HEPES pH 7.5, 50 mM sodium chloride (NaCl); 50 mM potassium fluoride (KF); 0.25 mM CHAPS and 0.05% serum albumin (BSA)] to the substances in the test plate. This was followed by a 10-minute incubation step at 22° C. for the pre-equilibration of putative complexes between BRD4(2) and the substances. Subsequently, 3 μl of a 1.67-fold concentrated solution (in assay buffer) consisting of Ac-H4 peptide (83.5 nM) and TR-FRET detection reagents [83.5 nM anti-6His-XL665 (Cisbio Bioassays, Codolet, France) and 12.52 nM streptavidin-Eu), (Perkin Elmer, #W1024)] in assay buffer were added.
(§4) The mixture was then incubated in the dark at 22° C. for one hour and then at 4° C. for at least 3 hours and for no longer than overnight. The formation of BRD4(2)/Ac-H4 complexes was determined by the measurement of the resonance energy transfer from the streptavidin-Eu chelate to the anti-6His-XL665 antibody present in the reaction. For this purpose, the fluorescence emission was measured at 620 nm and 665 nm after excitation at 330-350 nm in a TR-FRET measuring instrument, for example a Rubystar or Pherastar (both from BMG Lab Technologies, Offenburg, Germany) or a Viewlux (Perkin-Elmer). The ratio of the emissions at 665 nm and at 622 nm was taken as an indicator of the amount of BRD4(2)/Ac-H4 complexes formed.
The data (ratios) obtained were normalized, with 0% inhibition corresponding to the mean from the measurements for a set of controls (typically 32 data points) in which all the reagents were present. In these, in place of test substances, 50 nl of DMSO (100%) were used. Inhibition of 100% corresponded to the mean from the measurements for a set of controls (typically 32 data points) in which all the reagents except BRD4(2) were present. The IC50 was determined by regression analysis based on a 4-parameter equation (minimum, maximum, IC50, Hill; Y=max+(min−max)/(1+(X/IC50)Hill)).

Assay [2] concerns the target T2, BRD4 bromo domain 1 [BRD4(1)] (Homo sapiens, UniProt O60885).
T2 construct: N-terminally His6-tagged BRD4(1) (amino acids 67-152); made in house; host or cells: E. coli
The experiment in a line: BRD4/acetylated peptide H4 binding assay (TR-FRET), BRD4 bromo domain 1. The note with it: inhibition of BRD4(1)/Ac-H4 peptide interaction.
From the text: as §1
To assess the BRD4(1) binding strength of the substances described in this application, the ability thereof to inhibit the interaction between BRD4(1) and acetylated histone H4 in a dose-dependent manner was quantified.
as §2, with “BRD4(1)” for “BRD4(2)”, “67-152)” for “357-445)”, “GRGK(Ac)GGK(Ac)GLGK(Ac)GGAK(Ac)RHGSGSK-biotin.” for “SGRGK(Ac)GGK(Ac)GLGK(Ac)GGAK(Ac)RHRKVLRDNGSGSK-biotin.”
as §3, with “concentrated BRD4(1)” for “concentrated BRD4(2)”, “typically 10” for “typically 100”, “chloride (NaCl),” for “chloride (NaCl); 50 mM potassium fluoride (KF);”, “between BRD4(1)” for “between BRD4(2)”, “substances.” for “substances. Subsequently, 3 μl of a 1.67-fold concentrated solution (in assay buffer) consisting of Ac-H4 peptide (83.5 nM) and TR-FRET detection reagents [83.5 nM anti-6His-XL665 (Cisbio Bioassays, Codolet, France) and 12.52 nM streptavidin-Eu), (Perkin Elmer, #W1024)] in assay buffer were added.”
as §4, with “BRD4(1)/Ac-H4” for “BRD4(2)/Ac-H4”, “cryptate” for “chelate”
The data (ratios) obtained were normalized, with 0% inhibition corresponding to the mean from the measurements for a set of controls (typically 32 data points) in which all the reagents were present. In these, in place of test substances, 50 nl of DMSO (100%) were used. Inhibition of 100% corresponded to the mean from the measurements for a set of controls (typically 32 data points) in which all the reagents except BRD4(1) were present. The IC50 was determined by regression analysis based on a 4-parameter equation (minimum, maximum, IC50, Hill; Y=max+(min−max)/(1+(X/IC50)Hill)).

With `COc1ccc(CN2c3cc(Nc4cccc(S(=O)(=O)N5CCOCC5)c4)ccc3N(C)C(=O)[C@H]2C)cc1` [Example 11, (3R)-4-(4-Methoxybenzyl)-1,3-dimethyl-6-{[3-(morpholin-4-ylsulphonyl)phenyl]amino}-3,4-dihydroquinoxalin-2(1H)-one], the values for the IC50 in assay [1] and in assay [2] were 48 nM and 208 nM, respectively.

Regarding `COc1ccc(C(=O)N2CCN(C)CC2)cc1Nc1ccc2c(n1)N(C1CCOCC1)[C@H](C)C(=O)N2C` [Example 17, (3R)-6-({2-Methoxy-5-[(4-methylpiperazin-1-yl)carbonyl]phenyl}amino)-1,3-dimethyl-4-(tetrahydro-2H-pyran-4-yl)-3,4-dihydropyrido[2,3-b]pyrazin-2(1H)-one], the IC50 in assay [1] turned out to be 60 nM; in assay [2] it was 129 nM.

As to `COc1ccc(C(=O)NCCN(C)C)cc1Nc1ccc2c(n1)N(C1CCOCC1)[C@H](C)C(=O)N2C` [Example 19, N-2-(Dimethylamino)ethyl-3-{[(3R)-1,3-dimethyl-2-oxo-4-(tetrahydro-2H-pyran-4-yl)-1,2,3,4-tetrahydropyrido[2,3-b]pyrazin-6-yl]amino}-4-methoxybenzamide], the half-inhibitory concentration (IC50) is 132 nM in assay [1] and 234 nM in assay [2].

As to `C[C@@H]1C(=O)N(C)c2ccc(Nc3cccc(C(=O)N[C@H]4CC[C@H](N5CCN(CC6CC6)CC5)CC4)c3)cc2N1Cc1c(F)cccc1F` [Example 22, N-{trans-4-[4-(Cyclopropylmethyl)piperazin-1-yl]cyclohexyl}-3-{[4-(2,6-difluorobenzyl)-1,3-dimethyl-2-oxo-1,2,3,4-tetrahydroquinoxalin-6-yl]amino}benzamide], the half-maximal inhibitory concentration (IC50) is 157 nM in assay [1] and 708 nM in assay [2].

Turning to `CCN(CC)S(=O)(=O)c1cccc(Nc2ccc3c(n2)N(C2CCOCC2)[C@H](C)C(=O)N3C)c1` [Example 32, 3-{[(3R)-1,3-dimethyl-2-oxo-4-(tetrahydro-2H-pyran-4-yl)-1,2,3,4-tetrahydropyrido[2,3-b]pyrazin-6-yl]amino}-N,N-diethylbenzene-sulphonamide], the half-inhibitory concentration (IC50) in assay [1] stood at 39 nM; in assay [2], 22 nM.

On to `C[C@H]1C(=O)N(C)c2ccc(Nc3cccc(S(=O)(=O)N[C@H]4CC[C@H](N5CCN(CC6CC6)CC5)CC4)c3)nc2N1C1CCOCC1` [Example 36, N-{trans-4-[4-(cyclopropylmethyl)-piperazin-1-yl]cyclohexyl}-3-{[(3S)-1,3-dimethyl-2-oxo-4-(tetrahydro-2H-pyran-4-yl)-1,2,3,4-tetrahydropyrido[2,3-b]pyrazin-6-yl]amino}-benzenesulphonamide], for which the values for the 50% inhibitory concentration (IC50) in assay [1] and in assay [2] were 4230 nM and 727 nM, respectively.

As for `C[C@@H]1C(=O)N(C)c2ccc(Nc3cccc(S(=O)(=O)N4CC5(CCC5)C4)c3)nc2N1C1CCN(C(=O)OC(C)(C)C)CC1` [Example 60, tert-butyl 4-[(3R)-6-{[3-(2-azaspiro[3.3]hept-2-ylsulphonyl)phenyl]-amino}-1,3-dimethyl-2-oxo-2,3-dihydropyrido[2,3-b]pyrazin-4(1H)-yl]piperidine-1-carboxylate], the half-inhibitory concentration (IC50) in assay [1] came out at 265 nM; in assay [2] it was 200 nM.

`C[C@@H]1C(=O)N(C)c2ccc(Nc3cccc(S(=O)(=O)N(C)C)c3)nc2N1C1CCN(C(=O)OC(C)(C)C)CC1` [Example 61, tert-butyl 4-[(3R)-6-{[3-(dimethylsulphamoyl)-phenyl]amino}-1,3-dimethyl-2-oxo-2,3-dihydropyrido[2,3-b]pyrazin-4(1H)-yl]piperidine-1-carboxylate]: the values for the half-inhibitory concentration (IC50) in assay [1] and in assay [2] were 166 nM and 208 nM, respectively.

On to `C[C@@H]1C(=O)N(C)c2ccc(Nc3cccc(S(=O)(=O)N4CCN(C)CC4)c3)nc2N1C1CCN(C(=O)OC(C)(C)C)CC1` [Example 62, tert-butyl 4-[(3R)-1,3-dimethyl-6-({3-[(4-methylpiperazin-1-yl)sulphonyl]phenyl}-amino)-2-oxo-2,3-dihydropyrido[2,3-b]pyrazin-4(1H)-yl]piperidine-1-carboxylate], for which the half-maximal inhibitory concentration (IC50) was 133 nM in assay [1] and 256 nM in assay [2].
